Measurements reported in patent US20240033233A1, “COMPOSITIONS AND METHODS FOR DELIVERING PHARMACEUTICAL AGENTS” (Arizona Board of Regents on Behalf of the University of …, priority 2020, published 2024).
Read-outs that look alike come from different tables or passages of the source.

Legend:
[1] = Solubility of resatorvid in solvents (sonication, visual observation); format: physicochemical
Protocol: To determine solubility of resatorvid in a liquid formulation, a variety of solvents were tested: phosphate buffered saline, NS, ethanol, and PEG400, all with resatorvid at a concentration of 0.1% w/v and the solutions were sonicated for 1 hour at room temperature.
In addition, a solution of 5% w/v resatorvid in EtOH 140 proof was prepared (1 mL of ETOH and 50 mg of resatorvid). The solution was not translucent and became opaque/cloudy and there was still drug undissolved floating around.
Solutions were made with w/v TAK242+PEG600 and 5% w/v TAK242+100% Acetone. All three solutions were sonicated at room temperature for 1 hour. […] As the solution began to adjust to ambient temperature it started to solidify into a white thick substance almost like lard.
Further experiments were conducted using glycerol as the solvent. 0.0504 g of TAK-242 was weighed out to make a 5.04% w/v solution in 1 mL of glycerol, USP grade. […]. The solution was then sonicated for 60 minutes at 37° C. […] Images were taken at each to document the outcome.
A 5% w/v solution of resatorvid (50mg) and PEG 400 USP (1 mL) was prepared.
(§1) Seven platforms were analyzed for compatibility with TAK-242. The platforms were DermaBASE cream (cream and lotion), PENcream (cream), PEG-400 solution, PG solution, 1% w/v Carbomer 934P resin gel at pH˜7, 2% w/v Sodium hyaluronate gel/serum and 20% w/v Pluronic F127 gel. Solubility of TAK-242 was determined at concentrations ranging from 0.1-5% w/v using PBS (pH=7.41), 0.9% normal saline (NS), HPLC grade ethanol, PEG-400 and PG as solvents. The following step was to test if TAK-242 could be directly incorporated into the platforms mentioned above via non-sterile compounding to determine if the drug would need to be pre-dissolved before incorporation. Determination of how much volume of PEG-400 or PG could be incorporated into the creams and gels without losing consistency while maintaining homogeneity was examined; 1 g of base (cream or gel) was weighed out and was compounded with PEG-400 or PG (500 μL-1000 μL). Drug was then dissolved in appropriate determined volume of compatible solvent and sonicated for 60 minutes, then it was prepared via non-sterile compounding technique and formulations were examined for physical appearance (consistency, homogeneity, visible precipitation, phase separation, compatibility). The only formulation that was different was the Pluronic F127 as everything was mixed in as a liquid at 4° C. and the solution would then solidify at room temperature […] to create the gel which was then mixed thoroughly until homogenous.

[2] = Direct incorporation of resatorvid powder into cream bases (solubility/compatibility); format: physicochemical; conditions: room temperature 30 minutes to 1 hour
Protocol: The solubility of the drug as powder was tested on both Dermabase cream as well as PENcream. […] It was a clear indication that the drug would have to be pre-dissolved in a solution before incorporating into the creams.
A variety of cream/lotion formulations were prepared. One gram of Dermabase cream and 0.1 gram of resatorvid were compounded together. […] One gram of PENcream was compounded with 0.1 grams of resatorvid. After compounding the mixture sat for 1 hour at room temp. […] PEG 400 USP and PEG 600 USP at volumes of 0.5 mL, 1 mL and 2 mL were used with 1 gram of cream base. […] PEG 600 USP changed the cream consistency to a lotion for each cream at added volumes 0.5 mL, 1 mL and 2 mL.
as §1

[3] = UV-Vis spectra of resatorvid solution in PEG400 on storage; format: physicochemical; conditions: 0.1% w/v in PEG400, 4 days at 25° C.
Source text: The solvents that were used were PEG400, EtOH 140 proof, PBS pH 7.4, Acetonitrile, NS, and MeOH. PEG600 was not used as it was too thick. At a concentration of 0.1% w/v it was observed that resatorvid was soluble in PEG400, acetonitrile and EtOH 140 proof and HPLC grade MeOH. 0.01% w/v solutions were also made for some samples to show an acceptable UV-Vis spectra. Resatorvid was not soluble in NS or PBS pH 7.4.
A Molecular Devices® SpectraMax® M3 Multi-Mode Microplate Reader (Sunnyvale, CA, USA) was used to perform UV/Vis spectroscopy. The wavelength range was 190 through 290 nm. A 0.1% w/v solution of TAK-242 in HPLC grade methanol, PEG-400, HPLC grade ethanol, HPLC grade acetonitrile, PBS (pH=7.4) and 0.85% w/v normal saline were made and analyzed under UV visible spectroscopy on a 96-wellplate black clear bottom.

[4] = In vitro oil-water partitioning coefficient (Log-P), 1-octanol/PBS; format: physicochemical; conditions: for logP: 1-octanol/PBS; for partition coefficient (Log-P): range over pH 6.5, 7.1, 8.8
Protocol: TAK242 raw powder was weighed out (0.003 g) and placed in 2 dram ambered colored glass vials containing equal volumes (1.5 mL) of 1-octanol and PBS (1×, pH=7.4). Various solutions were made, and pH was adjusted and maintained at 6.5, 7.1, 8.8, adjustments were made using 0.1 M HCl solution and 0.1 M NaOH solution. […] The vials were rotated using a Barnstead/Thermolyne Labquake shaker (Dubuque, IA, USA) for 24 hours and then left undisturbed in a vertical position for an additional 24 hours for phase separation between the aqueous and non-aqueous layers. A sample of each layer was carefully withdrawn and then analyzed by a validated HPLC method as describe in the HPLC analysis section under methods.

[5] = system: human transformed keratinocytes (HaCaT); assay: In vitro cell dose-response (resazurin viability) in 2-D culture, HaCaT; format: cell-based; conditions: 72 h exposure
Protocol: (§2) The effects of raw TAK-242 powder on the viability of human representative human keratinocyte cell lines exposed to different concentrations were tested. HaCaT (a human transformed keratinocyte from histologically normal skin cell line) and NHEK (a primary normal epidermal keratinocyte cell line) were used as models of the human epidermis, which express keratinocytes in the stratum basale and then move up the final barrier layer of the skin, which is the stratum corneum. The HaCaT cells were grown in Dulbecco's modified Eagle's medium (DMEM), Optimized 1×, 10% (v/v) fetal bovine serum (FBS), and Pen-Strep (100 units/mL penicillin, 100 μg/mL) in a humidified incubator at 37° C. and 5% CO2. NHEK cells were grown NHEK- growth medium provided by MatTek (Ashland, MA, USA) in a humidified incubator at 37° C. and 5% CO2.
After confluence, HaCaT and NHEK cells were seeded in 96-black well plate at a concentration of 5,000 cells in 100 μL of media per well. After 48 hours, cells were then incubated for 48 h to allow attachment to the surface of the plates. Cells were then exposed to different concentrations of TAK-242. The drug solutions were prepared by dissolving raw TAK-242 powder in 5% v/v DMSO and DMEM media to make a solution at 1×. A volume of 100 μL of drug solution was added to each well. After 72 h of exposure and incubation at 37° C. and 5% CO2, 20 μL of 20 μM resazurin sodium salt were added to each well and incubated for 4 h. Fluorescence intensity of resofurin was detected at 544 nm (excitation) and 590 nm (emission) using the Molecular Devices® SpectraMax® M3 Multi-Mode Microplate Reader (Sunnyvale, CA, USA). The relative viability of the cells was calculated as followed by equation 1: […]

[6] = system: primary normal epidermal keratinocytes (NHEK); assay: In vitro cell dose-response (resazurin viability) in 2-D culture, NHEK; format: cell-based, human; conditions: 72 h exposure
Protocol: as §2
After confluence, HaCaT and NHEK cells were seeded in 96-black well plate at a concentration of 5,000 cells in 100 μL of media per well. After 48 hours, cells were then incubated for 48 h to allow attachment to the surface of the plates. Cells were then exposed to different concentrations of TAK-242. […] Fluorescence intensity of resofurin was detected at 544 nm (excitation) and 590 nm (emission) using the Molecular Devices® SpectraMax® M3 Multi-Mode Microplate Reader (Sunnyvale, CA, USA). The relative viability of the cells was calculated as followed by equation 1: […]

[7] = system: p-p38 signal in EpiDerms; assay: p-p38 signal after topical resatorvid with or without solar simulated light; format: cell-based, human; conditions: constitutive or UV-induced
[8] = cited from earlier work
[9] = cited from earlier work; remark: listed apart in the source
[10] = cited from earlier work; remark: listed apart in the source
[11] = system: UV-induced AP-1 activation; conditions: acetone solution of resatorvid, mouse epidermis; cited from earlier work
[12] = series of increasing concentrations

With `CCOC(=O)C1=CCCC[C@H]1S(=O)(=O)Nc1ccc(F)cc1Cl` [Resatorvid] the solubility ([1]; 0.1% w/v in EtOH 140 proof) was “soluble”, the solubility ([1]; 0.1% w/v in EtOH 140 proof, listed as TAK-242) was “completely dissolved” and the solubility ([1]; 0.1% w/v in HPLC grade MeOH) was “soluble”. For the same compound, the solubility ([1]; 0.1% w/v in NS (normal saline)) was “not soluble”, the solubility ([1]; 0.1% w/v in NS (normal saline), listed as TAK-242) was “failed to dissolve” and the solubility ([1]; 0.1% w/v in PBS pH 7.4) was “not soluble”. For the same compound, the solubility ([1]; 0.1% w/v in PBS pH 7.4, listed as TAK-242) was “failed to dissolve”, the solubility ([1]; 0.1% w/v in PEG400) was “soluble” and the solubility ([1]; 0.1% w/v in acetonitrile) was “soluble”. The solubility ([1]; 5% w/v in 100% acetone, sonicated at room temperature 1 hour) was “dissolved the drug completely”, the solubility ([1]; 5% w/v in EtOH 140 proof) was “only partially dissolved” and the solubility ([1]; 5% w/v in PEG 400 USP) was “no signs of undissolved drug”. For the same compound, the solubility ([1]; glycerol USP, 5.04%, 2.5%, 1.25% and 0.625% w/v, sonicated 60 minutes at 37° C.) was “did not dissolve”, the solubility ([1]; w/v in PEG600 (concentration not given), sonicated at room temperature 1 hour) was “dissolved the drug completely” and the “solubility of drug powder in cream” value ([2]; Dermabase cream) was “unable to dissolve in the cream”. For the same compound, the “solubility of drug powder in cream” value ([2]; Dermabase cream, listed as Resatorvid (TAK-242)) was “undissolved and incompatible with creams”, the “solubility of drug powder in cream” value ([2]; PENcream) was “undissolved drug” and the “solubility of drug powder in cream” value ([2]; PENcream, listed as Resatorvid (TAK-242)) was “undissolved and incompatible with creams”. For the same compound, the “stability of drug in solution (UV-VIS spectra)” value [3] was “no changes in the drug”, the logP ([4]; as quoted, conditions not stated, read-out: log P) was 1.54 and the logP ([4]; pH 6.5, At 35° C., pH = 6.5, read-out: Experimental (Log P) Average ± SD) was 1.65 ± 0.029. The logP ([4]; pH 6.5, At Room temperature/ambient temperature, pH = 6.5, read-out: Experimental (Log P) Average ± SD) was 1.58 ± 0.019, the logP ([4]; pH 7.1, At 35° C., pH = 7.1, read-out: Experimental (Log P) Avg. Log-P ± SD) was 1.68 ± 0.013 and the logP ([4]; pH 7.1, At Room temperature/ambient temperature, pH = 7.1, read-out: Experimental (Log P) Avg. Log-P ± SD) was 1.54 ± 0.149. For the same compound, the logP ([4]; pH 8.8, At 35° C., pH = 8.8, read-out: Experimental (Log P) Avg. Log-P ± SD) was 0.94 ± 0.023, the logP ([4]; pH 8.8, At Room temperature/ambient temperature, pH = 8.8, read-out: Experimental (Log P) Avg. Log-P ± SD) was 0.88 ± 0.06 and the “partition coefficient (Log-P)” value ([4]; at 35° C.) was 0.94-1.68. For the same compound, the “partition coefficient (Log-P)” value ([4]; at 37° C.) was 0.88-1.58, the “% cell viability” value ([5]; 1000 μM) was roughly 70% and the “% cell viability” value ([5]; all concentrations except 1000 μM) was roughly 100%. For the same compound, the toxicity [5, 12] was “did not show any significant toxicity”, the “% cell viability” value ([6]; all concentrations) was roughly 100% and the toxicity [6, 12] was “did not show any significant toxicity”. The p-p38 signal [7] was “potently blocked”, the reported solubility ([8]; in DMSO) was 10 mg/mL and the reported solubility ([8]; in EtOH) was 20 mg/mL. The reported solubility ([8]; in H2O) was “sparingly soluble”, the “reported Log P” value [9] was 2.53 and the “experimentally determined pKa reported” value [10] was 8.0-8.1. For the same compound, the “UV-induced AP-1 activation” value [11] was “blocked”.
